Measured values: patent US20260166000A1, “1,8-CINEOLE CONTAINING COMPOSITION FOR THERAPEUTIC USE” (Maria Clementine Martin Klosterfrau Vertriebsgesellschaft …, priority 2020, published 2026)
“Also recorded” adds a separate entry of the source.

Legend:
intestinal microbiome = experiment: Microbiome sequencing of stool samples, principal coordinates analysis (PCoA); type: in vivo, human; conditions: patients with polyposis nasi; before vs after 2-week ingestion, 200 mg 3 times a day (Soledum forte)
Procedure: (§1) As part of the studies, the stool samples of patients with polyposis nasi are analyzed under the influence of 1,8-cineole. For this purpose, a stool sample is first taken before starting the administration of 1,8-cineole and then again after 2 weeks of taking 1,8-cineole 3 times a day (Soledum® forte, content of 1,8-cineole: 200 mg).
(§2) Stool Stabilizer (company: Stratec Molecular) is added to the stool samples and initially stored at a temperature of −20° C. until further processing. Subsequent DNA extraction is performed using the PSP Spin Stool DNA Plus kit according to the manufacturer's instructions (Stratec Molecular). Finally, the isolated DNA is used for microbiome sequencing (TG MiSeq Reagent Kit v3 & NEBNext® Library Quant Kit for Illumina) and analyzed.
The results are illustrated in FIG. 1 in the form of principal coordinate analysis (PCoA) of the examined stool samples of the patients (1 to 5) with polyposis nasi before (without labeling, unfilled circle symbols) and after 2-week ingestion of 1,8-cineole (marked with “*”, filled circle symbols).

[1] = system: Lachnospiraceae, Bifidobacterium or Faecalibacterium; experiment: Microbiome sequencing of stool samples, bacterial genera; type: in vivo, human; conditions: patients with polyposis nasi; after 2-week therapy, 200 mg 3 times a day
Procedure: as §1, §2
(§3) Following this initial evaluation regarding existing alterations or changes in the intestinal microbiome of patients with polyposis nasi after 2-week ingestion of 1,8-cineole, a detailed evaluation of the microbiome sequencing performed will be performed regarding the bacterial genera identified.

[2] = system: bacteria of the family Ruminococcacea or the genus Ruminococcus; experiment: as above; type: in vivo, human; conditions: patients with polyposis nasi; after 2-week ingestion, 200 mg 3 times a day
Procedure: as §1, §2, §3

[3] = system: bacterial genus Prevotella; experiment: as above; type: in vivo, human; conditions: patients with polyposis nasi; after 2-week ingestion, 200 mg 3 times a day
Procedure: as §1, §2, §3

genus Bacteroides = experiment: as above; type: in vivo, human; conditions: patients with polyposis nasi; after 2-week therapy, 200 mg 3 times a day
Procedure: as §1, §2, §3

[4] = system: cellular complexes of circulating platelets (CD41) with leukocytes; experiment: Flow cytometry of cellular complexes of circulating platelets with leukocytes in blood; type: in vivo, human; conditions: for cellular complexes, neutrophils (Neutros), after / cellular complexes, lymphocytes (Lymphos), after / cellular complexes, eosinophils (Eosinos), after / cellular complexes, monocytes (Monos), after: blood of patients with polyposis nasi, after 2-week administration
Excerpt: Further, these cellular complexes will be specified in more detail by flow cytometer with respect to different leukocyte populations and with respect to the influence of 1,8-cineole.

[5] = system: monocytes circulating in the blood; experiment: Flow cytometry of monocyte subtypes (CD14/CD16) in blood; type: in vivo, human
Procedure: The monocytes circulating in the blood can be divided into the three different subtypes, namely “classical”, “intermediate” and “non-classical”, on the basis of their surface proteins CD14 and CD16 by flow cytometry. In flow cytometry, cells are analyzed for cell size, granularity and fluorescent labeling of specific epitopes by passing specific lasers. This allows different cell populations to be differentiated and characterized. […] These observations are now comprehensively analyzed in additional patients individually by flow cytometer, especially under the influence of 1,8-cineole. […] In this regard, reference can also be made to FIG. 5A/B.

[6] = system: patients with polyposis nasi; experiment: Patient perception and clinical therapy of polyposis nasi; type: in vivo, human
Procedure: In addition to the molecular biological investigations, the individual perception and quality of life of the patients with regard to the 2-week intake of 1,8-cineole is also surveyed. […] In 38 patients (23 men/15 women between 28 and 72 years, average age 54 years) each with polyposis nasi a therapy with 1,8-cineole was performed (3 times 200 mg 1,8-cineole in the form of capsules “Soledum® forte”).

[7] = system: Chronic polypous sinusitis; experiment: Clinical use in chronic polypous sinusitis; type: in vivo, human
Procedure: (§4) In addition, the effect of 1,8-cineole is further investigated on the basis of the following areas of application, with 200 mg of 1,8-cineole being administered 3 times a day for the period indicated in each case (Soledum® forte): • 1. Chronic polypous sinusitis • 2. Chronic recurrent catarrhal sinusitis • 3. Chronic polyposis otitis media without cholesteatoma • 4. Chronic polyposis otitis media with cholesteatoma • Ad 1.

[8] = system: Chronic recurrent catarrhal sinusitis; experiment: Clinical use in chronic recurrent catarrhal sinusitis; type: in vivo, human
Procedure: as §4

[9] = system: Chronic polyposis otitis media without cholesteatoma; experiment: Clinical use in chronic polyposis otitis media without cholesteatoma; type: in vivo, human
Procedure: as §4

[10] = system: Chronic polyposis otitis media with cholesteatoma; experiment: Clinical use in chronic polyposis otitis media with cholesteatoma; type: in vivo, human
Procedure: as §4

[11] = system: Patients with persistent bronchial asthma; experiment: Clinical use in persistent bronchial asthma as add-on therapy; type: in vivo, human
[12] = cited from earlier work
[13] = 38 patients with polyposis nasi, 3 times 200 mg, Soledum forte capsules
[14] = one case, small polyps on the olfactory groove, after 2 weeks
[15] = 200 mg 3 times a day, 2-week administration, preoperatively
[16] = 2-week administration, preoperatively, previously refractory otorrhea (local and systemic antibiotics)
[17] = after tympanoplasty, renewed otorrhea with recurrent perforation, 4-week administration
[18] = 2-week administration, preoperatively
[19] = after tympanoplasty, renewed otorrhea with recurrent perforation, 4 weeks of administration
[20] = twelve weeks of continuous therapy

## CC12CCC(CC1)C(C)(C)O2 [1,8-cineole, 1,3,3-trimethyl-2-oxabicyclo[2.2.2]octane]
Intestinal microbiome
  shift of beta diversity (PCoA) of stool samples: clear shift
[1]
  occurrence of Lachnospiraceae, Bifidobacterium or Faecalibacterium: certain changes or shifts with a tendency to increase
[2]
  bacteria of the family Ruminococcacea or genus Ruminococcus: significant increase
[3]
  presence of Prevotella in the intestine: significantly reduced; also recorded: almost complete disappearance
Genus Bacteroides
  occurrence of Bacteroides in the intestinal microbiome: significantly more abundant
[4]; Table 2 (data n2), before 5.37%
  cellular complexes, neutrophils (Neutros), after: 5.09%
[4]; Table 2 (data n2), before 5.4%
  cellular complexes, lymphocytes (Lymphos), after: 5.12%
[4]; Table 2 (data n2), before 10.7%
  cellular complexes, eosinophils (Eosinos), after: 4.8%
[4]; Table 2 (data n2), before 16.8%
  cellular complexes, monocytes (Monos), after: 6.28%
[4]; data n1, before 7.3%
  cellular complexes, eosinophils (Eosinos), after: 5.92%
[4]; data n1, before 12.4%
  cellular complexes, lymphocytes (Lymphos), after: 5.54%
[4]; data n1, before 13.9%
  cellular complexes, neutrophils (Neutros), after: 5.02%
[4]; data n1, before 14.7%
  cellular complexes, monocytes (Monos), after: 8.79%
[4]; patients with polyposis nasi, after taking over a period of two weeks
  monocyte complexes in blood: massive reduction
[5]; additional patients, 2-week therapy (FIG. 5A/B)
  monocyte distribution, additional patients analysed individually: restoration of the monocyte distribution
[5]; after 2-week therapy (FIG. 5A)
  CD16 "classical" monocytes (CD16 neg.): significant increase
[5]; after 2-week therapy (FIG. 5B)
  "intermediate" monocytes (CD16 pos.): clear decrease
[5]; patients with polyposis nasi, after 2-week intake, compared with healthy donors (FIG. 4)
  distribution of monocyte subpopulations: marked normalization or reversion
[6]; [13]
  nasal breathing: correspondingly improved
  secretion drainage: significantly improved
[6]; [14]
  nasal polyps: significant decrease
  olfactory sensation: marked improvement
[6]; polyposis patients consulted, 2-week intake
  patients' response (individual perception and quality of life): predominantly positive
[7]; [15]
  accompanying symptoms of the polyps (anterior and posterior watery rhinorrhea): reduction of the accompanying symptoms
[7]; 200 mg 3 times a day, 2-week administration, preoperatively, individual cases
  olfactory performance: In individual cases also improvement
[7]; postoperative
  wound healing: positive influence
[7]; postoperative, in combination with a nasal steroid
  recurrences and systemic cortisone administration: reduction of recurrences and systemic cortisone administration
[8]; [15]
  concomitant symptoms of polyps (anterior and posterior watery rhinorrhea): decrease in concomitant symptoms
  olfactory performance: significant improvement
[8]; postoperative
  use of nasal steroids: reduction of nasal steroids
  wound healing: positive influence
[9]; [16]
  otorrhea: decrease in otorrhea, allowing surgery
[9]; [17]
  otorrhea: decrease in otorrhea
  tympanic membrane: spontaneous tympanic membrane closure
[10]; [18]
  cholesteatom masses: no reduction
  inflamed mucosa of middle ear and mastoid: positive effect
[10]; [16]
  concomitant otorrhea: decrease in concomitant otorrhea, allowing surgery
[10]; [19]
  otorrhea: decrease of otorrhea
  tympanic membrane: spontaneous tympanic membrane closure
[11]; 4 times 200 mg/die perorally
  tolerability: well tolerated without side effects
[11]; 4 times 200 mg/die perorally, one week, with inhaled glucocorticoid, long-acting beta-2-sympathomimetic and theophylline
  lung function: slight to moderate improvement
[11]; 4 times 200 mg/die perorally, twelve weeks of continuous therapy
  reduction of inhaled glucocorticoid requirements: more than 50%
[11]; [20]
  glucocorticoid use in some of the patients treated: temporarily discontinued altogether
  need for betamimetics in some patients: significantly reduced
[12]
  solubility in water: insoluble
